{"source": "patent US20230181553A1", "about": "“COMPOSITION FOR HAIR IMPROVEMENT” (Dr. Cherry Inc., priority 2020, published 2023)", "key": {"[1]": {"test_system": "scalp", "test": "Change in hair thickness after application of pioglitazone suspension to half side of the scalp with electroporation", "type": "in vivo, human", "method": "As pioglitazone, a 15 mg pioglitazone tablet “NP” was used. One pioglitazone tablet was ground in a mortar, and the resultant was suspended in 3 mL of water for injection PL “FUSO” for use. Subjects were three female patients (patients). In each of the patients, lines were extended from both outer canthi toward the head, two points on these lines crossing a line extended between the both ears through the vertex were tattooed with an India ink, and a portion around the marked center was photographed under the same conditions. A suspension of pioglitazone was applied to the entire of half side of the scalp. In order to increase penetration, pioglitazone was caused to penetrate through the skin with META-TDS, Electroporation Machine (CTP-802, Grand Aespio Inc., Korea) at an output of 3 V/6 mA {actually measured value}. This treatment was performed at a frequency of once every two weeks 12 times (namely, for 6 months). The test sites were away from the midline of the head by 51 mm on average on both left and right sides. After 6 months from the start of the treatment (after performing the treatment 12 times), Dermo Prime, dpharris (CHOWIS, Korea) was used to import data of two images of each test site into a computer as digital images, and in each image, three hairs having the largest thickness (6 hairs in two images of each test site) were selected to automatically measure the thickness. An average value of the tested values (hair thickness: mm) was used for graphing. Specifically, assuming that the thickness before the treatment was 100, the thickness after the treatment was indicated as a rate. Regarding a patient group in which the treatment was performed on a half side, a difference between before and after the treatment and a difference between the left and right-side portions were compared."}, "[2]": {"test_system": "CD163", "test": "Gene expression in rat skin tissue after subcutaneous administration (qPCR)", "type": "in vivo, Wistar Rat", "conditions": "rat back skin, 2.5, 0.1 or 0.02 µg/portion, tissue after 8 weeks, relative to no PG administration", "method": "(§1) Next, change in gene expression in a tissue was checked. As a subject, 12 weeks old Wistar Rat (male) was used. Regarding a 2.5 µg/portion administration group, three regions were set on the back from the head to the tail, and each of these regions was divided into two regions on both left and right sides of the spine to set six regions on the back in total. In such an administration group, PG was administered to two portions around the center of each of the six regions. Specifically, in the 2.5 µg/portion administration group (n = 3), 2.5 µg (20 µL) of PG was administered per portion. Besides, regarding a 0.1 µg/portion administration group and a 0.02 µg/portion administration group, two regions were set from the head to the tail, and each of these regions was divided into two regions on both left and right sides of the spine, and thus, four regions in total were set on the back. In such an administration group, PG was administered to two portions around the center of each of the four regions. Specifically, in the 0.1 µg/portion administration group (n = 3), 0.1 µg (20 µL) of PG was administered per portion, and in the 0.02 µg/portion administration group (n = 2), 0.02 µg (20 µL) of PG was administered per portion. It is noted that a distance between the two portions was 1 cm. After 8 weeks, a tissue was collected with a 3 mm punch after shaving a portion on the center of the injected portion.\n(§2) The collected tissue piece was frozen with liquid nitrogen, and stored at -80° C. […] For gene expression analysis by quantitative PCR, design and synthesis of a gene specific primer and a probe were entrusted to Integrated DNA Technologies, Inc. (Skokie, IL, USA), and an expression level of a target gene was analyzed with Prime Time Gene Expression Master Mix reagent (Integrated DNA Technologies, Inc., Skokie, IL, USA) and a Rotor-Gene Q PCR device (QIAGEN GmbH, Hilden, Germany). […]"}, "[3]": {"test_system": "CD34", "test": "Gene expression in rat skin tissue after subcutaneous administration (qPCR)", "type": "in vivo, Wistar Rat", "conditions": "rat back skin, 2.5, 0.1 or 0.02 µg/portion, tissue after 8 weeks, relative to no PG administration", "method": "as §1, §2"}, "[4]": {"test_system": "CD68", "test": "Gene expression in rat skin tissue after subcutaneous administration (qPCR)", "type": "in vivo, Wistar Rat", "conditions": "rat back skin, 2.5, 0.1 or 0.02 µg/portion, tissue after 8 weeks, relative to no PG administration", "method": "as §1, §2"}, "[5]": {"test_system": "hair thinning", "test": "Scalp improvement effect in nine regions in androgenetic alopecia patients (rating of hair growth effect)", "type": "in vivo, human", "conditions": "four AGA male patients, oral 5 mg once a day, 2 months", "text": "In this example, the scalp was divided into nine regions to observe the effect of the treatment therein. In this manner, even when each patient has both a good portion (portion having a large hair volume) and a poor portion (portion having a small hair volume), influence on the good portion and influence on the poor portion can be separately evaluated, and thus, it can be expected that highly accurate evaluation can be realized. Subjects were four androgenetic alopecia (AGA) male patients (of 42 to 63 years old) having aggravated as compared with a state 1 year ago. Two patients out of these patients had continuously taken Finasteride, an anti-androgen agent, respectively from 4 years ago and 7 years ago, and continuously took it after starting the following treatment. In this example, pioglitazone, that is a PPARγ agonist, was orally administered to these patients. […] A photograph of each patient taken from directly above 10 to 12 months before starting the treatment of this example, a photograph taken on the day of starting the treatment, and a photograph taken after 2 months from the start of the treatment were evaluated. […] A hair growth effect was evaluated by the 5 medical specialists in accordance with the following rating. […]"}}}
{"smiles": "CCc1ccc(CCOc2ccc(CC3SC(=O)NC3=O)cc2)nc1", "note": "(centres unmarked) [pioglitazone]", "values": [{"measurement": "hair thickness on treated side compared with negative control", "setting": "[1]; 15 mg tablet suspended in 3 mL water, half side of scalp, once every two weeks 12 times, 1 month to 6 months after treatment, three female patients", "value": "increased in the thickness"}, {"measurement": "change rate of hair thickness on treated side vs change rate in negative control", "setting": "[1]; half side treatment, 6 months, FIG. 1 lower panel", "value": "higher than the change rate obtained in the negative control"}, {"measurement": "growing rate of hair (particularly anagen-stage hair)", "setting": "[1]; modification of the scalp with pioglitazone", "value": "improvement of a growing rate of hair"}, {"measurement": "expression of CD163", "setting": "[2]", "value": "found to simultaneously increase"}, {"measurement": "expression of CD34", "setting": "[3]", "value": "found to increase"}, {"measurement": "expression of CD68", "setting": "[4]", "value": "found to simultaneously increase"}, {"measurement": "hair thinning in a site having a high degree of aggravation", "setting": "[5]", "value": "trends toward improvement were observed"}, {"measurement": "progress of hair thinning", "setting": "[5]; rating by 5 medical specialists, FIG. 7B", "value": "the progress of hair thinning was at least stopped"}]}
